Assay results: ChEMBL document CHEMBL1949582, “Suppression of nitric oxide production on LPS/IFN-γ-stimulated RAW264.7 macrophages by a novel catechin, pilosanol N, from Agrimonia pilosa Ledeb” (Bioorg Med Chem Lett, 2012)
The source made the active and inactive calls. The calls are words filed in the database; no cut-off is given here.

Key:
RAW264.7 [1] = assay: Antiinflammatory activity in mouse RAW264.7 cells assessed as inhibition of LPS/IFN-gamma-induced NO production at 25 to 100 uM after 20 hrs by Griess method; assay type: functional, cell-based
RAW264.7 [2] = assay: Antiinflammatory activity in mouse RAW264.7 cells assessed as inhibition of LPS/IFN-gamma-induced iNOS gene expression at 25 uM by RT-PCR analysis; assay type: functional
RAW264.7 [3] = assay: Protection against LPS/IFN-gamma-induced cell damage in mouse RAW264.7 cells by MTT assay; assay type: functional, cell-based
RAW264.7 [4] = assay: Antiinflammatory activity in mouse RAW264.7 cells assessed as inhibition of LPS/IFN-gamma-induced NO production after 20 hrs by Griess method; assay type: functional, cell-based
[5] = Antioxidant activity in PBS buffer assessed as nitric oxide scavenging activity by measuring inhibition of nitrite production from NOR3 after 60 mins; assay type: functional
RAW264.7 [6] = assay: Antiinflammatory activity in mouse RAW264.7 cells assessed as inhibition of LPS/IFN-gamma-induced iNOS protein production at 100 uM by RT-PCR analysis; assay type: functional, cell-based
RAW264.7 [7] = assay: Cytotoxicity against mouse RAW264.7 cells assessed as cell viability at 25 to 100 uM by MTT assay; assay type: cell-based; conditions: raw264.7, 100 µM

C[C@@H]1O[C@@H](Oc2c(-c3ccc(O)c(O)c3)oc3cc(O)cc(O)c3c2=O)[C@H](O)[C@H](O)[C@H]1O
inhibition (RAW264.7 [1]): Active

COc1c(C)c(O)c(Cc2c(O)cc(O)c3c2O[C@H](c2ccc(O)c(O)c2)[C@@H](O)C3)c(O)c1C(C)=O [PILOSANOL N]
inhibition at 25 µM (RAW264.7 [2]): 60% | Activity (RAW264.7 [3]): Dose-dependent effect | inhibition (RAW264.7 [4]): Dose-dependent effect | inhibition [5]: Dose-dependent effect | inhibition (RAW264.7 [6]): Active | Activity (RAW264.7 [7]): Non-toxic
